Values quoted from earlier work, collected in paper PMC3222680 (PLoS ONE, 2011).

Tested on: α1 β GlyRs with cysteine mutations in the M2–M3 loop of the β subunit
Conditions: cysteine-substituted α1 β GlyRs (β subunit M2–M3 loop) ref 22; cited from earlier work

C[N+](C)(C)CCSS(C)(=O)=O [MTSET, 2-trimethylammoniumethylmethane thiosulfonate]
channel function in response to MTSET treatment: did not change
